Results: patent US20240350402A1, “TOPICAL DRUG TREATMENT TO PREVENT OR REDUCE CORNEAL SCARRING” (The Cleveland Clinic Foundation, priority 2021, published 2024)

Tests used:
[1] = tested on: rabbit corneas after -9D PRK; assay: -9D PRK model: slit lamp central opacity (ImageJ); format: in vivo; details: topical 0.8 mg/ml losartan six times a day, one month
Experimental: Animal procedures were approved by the Institutional Animal Care and Use Committee at the Cleveland Clinic Foundation and animals were treated in accordance with the tenets of the Association for Research in Vision and Ophthalmology Statement for the Use of Animals in Ophthalmic and Vision Research. Twelve female 12- to 15-week-old New Zealand white rabbits weighing 2.5 to 3 kg each were included. Starting 24 hours prior to surgery and continuing 5 days after PRK, all rabbits received 60 mL children's liquid acetaminophen (Johnson & Johnson, Ft. Washington, PA, USA) per 1 L of drinking water. One eye of each rabbit was randomly selected to have −9.0 D (on myopia scale) PRK and received 2 drops of topical 1% proparacaine hydrochloride (Alcon, Fort Worth, TX, USA) prior to the surgery. […]
At 1 month after PRK and treatment, each rabbit was placed under ketamine-xylazine general anesthesia and the eyes were dilated with two drops of 1% tropicamide (Akorn Co., Lake Forest, IL, USA) for 30 minutes. […] For each study cornea, the mean opacity in pixels in the central 3.5 mm of the PRK ablated zone was determined by using ImageJ 1.53a analysis software (National Institutes of Health, Bethesda, MD, USA). […]

[2] = tested on: rabbit corneas after Descemetorhexis; assay: Descemetorhexis (DMR) model: standardized slit lamp photographs, ImageJ intensity of central opacity; format: in vivo; details: one month; for intensity of opacity in a 2.5 mm circle of central cornea (ImageJ) vs DMR vehicle or DMR oral losartan groups: P<0.05
Experimental: All procedures involving animals were approved by the Institutional Animal Care and Use Committee (IACUC) at the Cleveland Clinic Foundation (Cleveland, OH, USA) and the Animal Care and Use Review Office of the Department of the Army (Fort Detrick, MD). All animals were treated in accordance with the tenets of the ARVO Statement for the Use of Animals in Ophthalmic and Vision Research. Twenty-eight 10- to 15-week-old female New Zealand White rabbits weighing 2.5 to 3.0 kg each were included in this study—four in each group.
The rabbits had general anaesthesia with 30 mg/kg ketamine hydrochloride and 5 mg/kg xylazine by IM injection. In addition, topical proparacaine hydrochloride 1% (Alcon, Ft Worth, TX, USA) was applied to each eye prior to the surgery. One cornea selected at random in each group either had sham surgery without Descemetorhexis or an 8 mm diameter central Descemet's membrane-endothelial excision. The time point of one month after surgery was selected for the study because myofibroblasts and fibrosis in the posterior cornea was maximal at this time point in a prior time course Descemetorhexis study (Sampaio et al., 2021). Descemetorhexis was performed as described in the prior study (Sampaio et al., 2021). Briefly, a wire lid speculum was placed into one eye of each rabbit and an 8 mm diameter gentian violet circle was marked on the epithelial surface for reference. A limbal entry incision was created with a 1.6 mm blade (Bausch and Lomb, Rochester, NY, USA) and 0.3 ml Healon OVD (Abbott Medical Optics Inc. Santa Ana, CA, USA) was injected into the anterior chamber. A reversed Sinskey hook (Katena, Denville, New Jersey, USA) was placed into the anterior chamber and an 8 mm diameter disc of Descemet's membrane and endothelium was excised underlying the 8 mm area previously marked on the anterior corneal surface, without a subsequent endothelial corneal transplant. No removal of Descemet's membrane or endothelium was performed in unwounded sham surgery eyes. Remaining Healon OVD was removed with a Simcoe irrigation and aspiration cannula (Bausch & Lomb, Storz, Rochester, NY, USA) and the anterior chamber was filled with balanced salt solution (BSS). A single 10-0 nylon suture was placed at the incision site to prevent leakage from the anterior chamber. One drop of ciprofloxacin (Alcon, Ft. Worth, TX, USA) was applied to the corneas immediately after surgery and four times a day until the epithelium entry wound healed at approximately 2 days.
The oral solution was prepared with 5 ml distilled water+50 ml ora-plus (suspending vehicle—Perrigo, Dublin, Ireland)+45 ml Ora-sweet (flavored syrup vehicle—Perrigo).
After one month of treatment, study eyes were dilated with two drops of 1% tropicamide (Akom Co., Lake Forest, IL) for thirty minutes. After general anaesthesia, the study eye in each rabbit had standardized slit lamp photographs at 20× magnification with a Haag Streit (Mason, OH, USA) BX900 slit lamp photography system using identical lighting position and intensity. For each study eye, the intensity of a 2.5 mm diameter central circle (not including the light reflex, examples shown in FIG. 1) was determined using ImageJ 1.53a analysis software. Statistical comparisons of the intensity of opacity was performed using the Kruskal-Wallis test followed by post-hoc Dunn's-Bonferroni test and p<0.05 was considered statistically significant

## CCCCc1nc(Cl)c(CO)n1Cc1ccc(-c2ccccc2-c2nn[nH]n2)cc1 [losartan]
[1]
  mean pixels of opacity within the analyzed 3.5 mm diameter area (mean±SEM): 77±3 pixels
[2]; DMR
  intensity of opacity in the central cornea, topical vs topical and oral losartan: no significant difference
[2]; DMR, oral 5 mg/kg three times a day
  scarring fibrosis and neovascularization compared to DMR vehicle control corneas: no difference
[2]; DMR, topical 0.4 mg/ml six times per day + oral 5 mg/kg three times a day
  changes in corneal opacity and neovascularization vs topical losartan alone: not different
[2]; DMR, topical 0.4 mg/ml six times per day
  scarring fibrosis (slit lamp): overall decrease
[2]; DMR, topical losartan and oral losartan
  intensity of opacity in a 2.5 mm circle of central cornea (ImageJ) vs DMR vehicle or DMR oral losartan groups: significant decrease
[2]; DMR, topical losartan
  corneal neovascularization after Descemetorhexis: reduced
  intensity of opacity in a 2.5 mm circle of central cornea (ImageJ) vs DMR vehicle or DMR oral losartan groups: significant decrease
[2]; 0.4 mg/ml topical losartan six times per day
  transparency of sham unwounded corneas: no effect
[2]; oral 5 mg/kg losartan three times per day
  transparency of sham unwounded corneas: no effect
